Among the test systems are MOLT-4 leukemia; RPMI-8226 leukemia; RXF 393 renal; SF-539 CNS; SK-MEL-28 melanoma; SNB-75 CNS; TK-10 renal; U251 CNS; UACC-257 melanoma.
Common to all, as to experiment: DTP human tumour cell line panel, 48 h

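In this assay, cells in 96-well plates receive the compound at five concentrations for 48 hours. Endpoints are linearly interpolated between the surrounding concentrations. At the TGI there is no net growth.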

As to `COC(=O)c1ccccc1/C=C1/Cc2ccccc2C1=O`, the TGI is 78.5 µM in the experiment on MOLT-4 leukemia; 49.5 µM with RPMI-8226 leukemia; > 100 µM in the experiment with RXF 393 renal; > 100 µM in the experiment with SF-539 CNS; > 100 µM in the experiment on SK-MEL-28 melanoma; > 100 µM in the experiment with SNB-75 CNS. In addition, the total growth inhibition concentration (TGI) in the experiment with TK-10 renal was > 100 µM; with U251 CNS, 94.9 µM; in the experiment with UACC-257 melanoma it was 68.1 µM.

`O=C1CCSSCCC(=O)NCCN1`: the TGI in the experiment on MOLT-4 leukemia, with RPMI-8226 leukemia, in the experiment with RXF 393 renal, in the experiment with SF-539 CNS, in the experiment with SK-MEL-28 melanoma and with TK-10 renal was > 100 µM in each case. The TGI in the experiment on U251 CNS and with UACC-257 melanoma was > 100 µM in each case.

As to `C/C(N=Nc1nc2ccccc2s1)=C1/C=CC=CN1O`, the TGI in the experiment with MOLT-4 leukemia is > 100 µM; in the experiment with RPMI-8226 leukemia, > 100 µM; with RXF 393 renal it was > 100 µM; with SF-539 CNS, > 100 µM; in the experiment with SK-MEL-28 melanoma it was > 100 µM; in the experiment on TK-10 renal it was 61.3 µM. The concentration for total growth inhibition (TGI) with U251 CNS and with UACC-257 melanoma was > 100 µM in each case.

For `CC(C)=C[C@@H]1C[C@H](n2cc(C)c(=O)[nH]c2=O)ON1CCO`, the concentration for total growth inhibition (TGI) with MOLT-4 leukemia, with RPMI-8226 leukemia, in the experiment on RXF 393 renal, in the experiment on SF-539 CNS, with SK-MEL-28 melanoma and in the experiment with SNB-75 CNS was > 100 µM in each case. Besides, the total growth inhibition concentration (TGI) in the experiment with TK-10 renal, with U251 CNS and with UACC-257 melanoma was > 100 µM throughout.

With `CN(C)c1ccc(-c2c(C#N)c(S)n(NS(=O)(=O)c3ccccc3)c(=O)c2C#N)cc1`, the concentration for total growth inhibition (TGI) with MOLT-4 leukemia was > 100 µM; in the experiment with RPMI-8226 leukemia, 91 µM; with RXF 393 renal, > 100 µM; in the experiment with SF-539 CNS, 53.4 µM; with SK-MEL-28 melanoma it was > 100 µM; in the experiment with SNB-75 CNS it was > 100 µM. The total growth inhibition concentration (TGI) in the experiment with TK-10 renal was 41.4 µM; with U251 CNS, > 100 µM; in the experiment with UACC-257 melanoma, > 100 µM.

With `Cc1cc(-c2nc3c(O)cccc3s2)ccc1N`, the TGI in the experiment on MOLT-4 leukemia, with RPMI-8226 leukemia, in the experiment on RXF 393 renal, in the experiment with SF-539 CNS, in the experiment on SK-MEL-28 melanoma and in the experiment on SNB-75 CNS was > 100 µM each time. For the same compound, the TGI with TK-10 renal was 74.8 µM; in the experiment with U251 CNS, > 100 µM; with UACC-257 melanoma, 57.6 µM.

For `COc1ccc(CC(CO)NC(=O)OCc2ccccc2)cc1Oc1ccc(CC(CO)NC(=O)OCc2ccccc2)cc1` (stereo not drawn), the TGI with MOLT-4 leukemia turned out to be 34.5 µM; with RPMI-8226 leukemia, 30.9 µM; in the experiment with SK-MEL-28 melanoma, 54.9 µM; in the experiment with SNB-75 CNS, 11.7 µM; in the experiment with TK-10 renal, 41.5 µM; in the experiment on U251 CNS, 63.9 µM. In addition, the TGI in the experiment on UACC-257 melanoma came to 61.4 µM.

Regarding `COc1cc2c(cc1OC)C1c3ccccc3CCN1CC2` (stereo not drawn), the TGI with MOLT-4 leukemia was > 100 µM; with RXF 393 renal, > 100 µM; in the experiment with SF-539 CNS it was 75.1 µM; in the experiment with SK-MEL-28 melanoma it was > 100 µM; in the experiment on SNB-75 CNS, > 100 µM; in the experiment with TK-10 renal, > 100 µM. In addition, the concentration for total growth inhibition (TGI) with U251 CNS and in the experiment on UACC-257 melanoma was > 100 µM each time.

For `CCOP(=O)(OCC)C1C(CO)OC(n2ccc(=O)[nH]c2=O)C1O` (stereo not drawn), the TGI in the experiment with RPMI-8226 leukemia, with RXF 393 renal, with SF-539 CNS, with SK-MEL-28 melanoma, in the experiment on SNB-75 CNS and with TK-10 renal was > 100 µM throughout. In addition, in the experiment with UACC-257 melanoma, the total growth inhibition concentration (TGI) was > 100 µM.

For `O=C1CCC(=Nc2ccc(Cl)cc2)N1C(=O)COc1ccc(OCC(=O)N2C(=O)CSC2=Nc2ccc(Cl)cc2)cc1`, the TGI is > 100 µM in the experiment with RPMI-8226 leukemia; > 100 µM with RXF 393 renal; > 100 µM in the experiment on SK-MEL-28 melanoma; 91.9 µM in the experiment on SNB-75 CNS; > 100 µM with TK-10 renal; > 100 µM with U251 CNS. For the same compound, the concentration for total growth inhibition (TGI) with UACC-257 melanoma is > 100 µM.

For the compound `CC1(C)O[C@@H]2COC(=O)[C@@H]2O1`, the TGI in the experiment on MOLT-4 leukemia, in the experiment on RXF 393 renal, in the experiment with SF-539 CNS, in the experiment on SK-MEL-28 melanoma, in the experiment on SNB-75 CNS and with TK-10 renal was > 100 µM throughout. In addition, the total growth inhibition concentration (TGI) in the experiment with U251 CNS and with UACC-257 melanoma was > 100 µM each time.

For `CCCCOC(C)(C)/C=C/C(O)[C@](C)(O)[C@H]1[C@H](O)C[C@@]2(C)[C@@H]3CCc4c(cc(OC5OC(CO)C(O)C(O)C5O)c(O)c4C)C3(C)C(=O)C[C@]12C` (stereo partly drawn), the total growth inhibition concentration (TGI) in the experiment on MOLT-4 leukemia, in the experiment on RXF 393 renal, in the experiment with SF-539 CNS, in the experiment with SK-MEL-28 melanoma, in the experiment with SNB-75 CNS and in the experiment on TK-10 renal was > 100 µM throughout. Also, the TGI in the experiment with U251 CNS and in the experiment on UACC-257 melanoma was > 100 µM each time.

With `c1ccc2c(c1)[nH]c1nc3cc(-c4ccc5nc6c(nc5c4)[nH]c4ccccc46)ccc3nc12`, the concentration for total growth inhibition (TGI) in the experiment with MOLT-4 leukemia, in the experiment on RPMI-8226 leukemia, with RXF 393 renal, in the experiment on SK-MEL-28 melanoma, in the experiment on SNB-75 CNS and with TK-10 renal was > 100 µM in each case. The TGI with U251 CNS and with UACC-257 melanoma was > 100 µM each time.

Regarding `N#Cc1c(-c2ccccc2)/c(=C\Nc2ccc(Cl)cc2)c(=O)n2c1nc1ccccc12`, the TGI is 45.9 µM in the experiment with RPMI-8226 leukemia; > 100 µM with RXF 393 renal; > 100 µM with SF-539 CNS; > 100 µM in the experiment on SK-MEL-28 melanoma; > 100 µM in the experiment with SNB-75 CNS; > 100 µM in the experiment with TK-10 renal. For the same compound, the total growth inhibition concentration (TGI) with U251 CNS and in the experiment on UACC-257 melanoma was > 100 µM each time.

Take `CC(CC(C#N)(c1ccccc1)c1ccccc1)N1CCCCC1` (stereo not drawn): the TGI is 49.3 µM in the experiment on MOLT-4 leukemia; 40.7 µM in the experiment on RPMI-8226 leukemia; > 100 µM with RXF 393 renal; 67 µM in the experiment on SK-MEL-28 melanoma; > 100 µM with SNB-75 CNS; 46.5 µM in the experiment with TK-10 renal. The TGI with U251 CNS is > 100 µM; in the experiment with UACC-257 melanoma it was 29.6 µM.

With `Cc1nn(C(=O)Cc2ccccc2)c2c1C(c1ccccc1O)SC(N)=N2` (stereo not drawn), the total growth inhibition concentration (TGI) with MOLT-4 leukemia, in the experiment on RPMI-8226 leukemia, in the experiment on SF-539 CNS, in the experiment on SK-MEL-28 melanoma, in the experiment with SNB-75 CNS and with TK-10 renal was > 100 µM throughout. Besides, the total growth inhibition concentration (TGI) with UACC-257 melanoma was > 100 µM.

These data come from PubChem BioAssay (NCI).
